Patent publication US7713942B2, “Cage-like microparticle complexes comprising sterols and saponins for delivery of polynucleotides” (Nordic Vaccine Technology A/S, priority 2001, dated 2010)
“And” between values parts separate entries of the source, which are not always exact repeats. Identical values can stand only once.

How the values were obtained:
[1] = dose-dependent, apparently nonspecific; cited from earlier work
[2] = Equilibrium-dialysis of ^14C-Mega 10 from ISCOM-matrix; settings: water not replaced
Description: ISCOMs were prepared by combining Quil A, cholesterol and phophatidylcholine with the component to be inserted (e.g. lipopeptide). ISCOMs were allowed to form for 4 hours with stirring at 35° C. (room temperature for experiments with ^12C/^14C-Mega 10) followed by dialysis against phosphate buffered saline (pH 7.2) in Slide-A-Lyzer® cassettes (Pierce, Rockford, Ill.) or dialysis tubing (Visking, London, UK), MW cut-off 10,000. The concentration in the reaction mixture of Quil A ranged 0.9 mg/ml to 1.3 mg/ml for the different preparations (see Section 3), whereas the concentration of cholesterol and phophatidylcholine was 0.03% w/v in all experiments. The final concentration of Mega 10 was 4% w/v unless otherwise stated.
In the first experiment the kinetics of the Mega 10-dialysis was investigated. ISCOM-matrix was formed in the presence of 7% w/v ^12C/^14C-Mega 10 and Quil A at a concentration of 0.9 mg/ml. From a total volume of 18.3 ml sixteen aliquots of 1 ml were taken and set up for dialysis against water in 8 beakers of 1000 ml (2×1 ml bags per 1000 ml water). Four beakers were placed at room temperature and four at 4° C. with stirring. On each of the following days one beaker from both temperatures were taken and the contents of the individual dialysis bags (2×2 bags) counted after addition of water in order to compensate for differences in volume. Table 1 lists the amount of ^14C-Mega 10 remaining in each bag after dialysis for a certain period of time given as the percentage of cpm (counts per minute) relative to the initial ^14C-contents. […] However, the same end-point concentration of ^14C-Mega 10 was reached within four days (0.4-1%) despite of temperature. Anticipating that Mega 10 diffuses freely across the dialysis membrane one would expect the contents of dialysis bags to represent 0.51% of the total ^14C-Mega 10, as the volume of two bags (from one beaker) at equilibrium was 5.1 ml leaving approx. 995 ml in the beaker (5.1 ml/995 ml*100%=0.51%). And it is concluded that although dialysis at room temperature is faster than dialysis at 4° C. both methods are equally efficient in removing Mega 10 from ISCOM-matrix.

[3] = End-point-dialysis of ^14C-Mega 10 from ISCOM-matrix; settings: for Amount of detergent remaining in bags: Room temperature, daily replacement of water
Description: In order to further investigate if Mega 10 could be completely removed from ISCOM-matrix a second experiment was designed. Here, four dialysis bags containing 1 ml of ISCOM-matrix prepared with 3.3% w/v ^12C/^14C-Mega 10 was placed in individual beakers containing 1000 ml of water. Dialysis was performed at room temperature with stirring. Each day one beaker was taken and the contents of the dialysis bag counted after which the dialysis buffer (water) of the remaining beakers was replaced.

| Amount of detergent remaining in dialysis bags ([2]; Room temperature, 1 day) | Amount of detergent remaining in dialysis bags ([2]; Room temperature, 2 days) | Amount of detergent remaining in dialysis bags ([2]; Room temperature, 3 days) | Amount of detergent remaining in bags ([3]; 1 day) [%] | Amount of detergent remaining in bags ([3]; 2 days) [%] | Amount of detergent remaining in bags ([3]; 3 days) [%] | Amount of detergent remaining in bags ([3]; 4 days) [%] | original amount of detergent remaining within the dialysis bag ([3]; at equilibrium, with replacement of water) [%] | Structure (SMILES) | immunomodulating activity [1] | Amount of detergent remaining in dialysis bags ([2]; 4° C., 1 day) | Amount of detergent remaining in dialysis bags ([2]; 4° C., 2 days) | Amount of detergent remaining in dialysis bags ([2]; 4° C., 3 days) | Amount of detergent remaining in dialysis bags ([2]; 4° C., 4 days) | Amount of detergent remaining in dialysis bags ([2]; Room temperature, 4 days) |
| --- | --- | --- | --- | --- | --- | --- | --- | --- | --- | --- | --- | --- | --- | --- |
|  |  |  |  |  |  |  |  | CC(=O)O[C@@H]1[C@H](O[C@@H]2O[C@@H](CO)[C@H](O)[C@H]2O)[C@@H](O[C@@H]2O[C@@H](C)[C@H](O[C@@H]3OC[C@@H](O)[C@H](O)[C@H]3O)[C@@H](O)[C@H]2O)[C@H](OC(=O)[C@]23CCC(C)(C)C[C@H]2C2=CC[C@@H]4[C@@]5(C)CC[C@H](O[C@@H]6O[C@H](C(=O)O)[C@@H](O)[C@H](O[C@@H]7OC[C@@H](O)[C@H](O)[C@H]7O)[C@H]6O[C@@H]6O[C@H](CO)[C@H](O)[C@H](O)[C@H]6O)[C@@](C)(C=O)[C@H]5CC[C@@]4(C)[C@]2(C)CC3)O[C@@H]1C [Squarroside A] | a suppressive effect at concentrations in the μg range and a stimulant effect in the pg range |  |  |  |  |  |
| 2.1 percentage of initial cpm | 0.9 percentage of initial cpm | 0.9 percentage of initial cpm | 0.23 | 0.07 | 0.06 | 0.07 | 0.07 | CCCCCCCCCC(=O)N(C)CC(O)C(O)C(O)C(O)CO (centres unmarked) [^14C-Mega 10, N-Decanoyl-N-methylglucamide] |  | 14.5 percentage of initial cpm and 13.5 percentage of initial cpm | 2.2 percentage of initial cpm and 2.3 percentage of initial cpm | 1.0 percentage of initial cpm and 1.3 percentage of initial cpm | 0.7 percentage of initial cpm and 1.1 percentage of initial cpm | 0.7 percentage of initial cpm and 0.4 percentage of initial cpm |
